Measured values from DBAASP.
In brackets after ≈: the same amount, converted by molar mass.

Columns and labels:
Assay in all cases: ≥ marks a high value that may be exact or a test limit, other limits are often not marked, values filed in µg/mL are converted to µM
[1] = tested on: Bacillus subtilis ATCC 6633
[2] = tested on: Staphylococcus aureus ATCC 25923
[3] = tested on: Pseudomonas aeruginosa ATCC 9027
[4] = tested on: Staphylococcus aureus ATCC 6538
Acinetobacter baumannii = tested on: Acinetobacter baumannii
[5] = tested on: Escherichia coli ATCC 25922
[6] = tested on: Klebsiella pneumoniae ATCC 700603
[7] = tested on: Pseudomonas aeruginosa ATCC 27853
[8] = tested on: Staphylococcus aureus ATCC 29213
[9] = tested on: Staphylococcus aureus ATCC 43300
[10] = tested on: Candida albicans ATCC 90028
Pseudomonas aeruginosa = tested on: Pseudomonas aeruginosa
Escherichia coli = tested on: Escherichia coli
Staphylococcus aureus = tested on: Staphylococcus aureus

Row | SMILES | MIC [2] [µM] | MIC [5] [µM] | MIC [3] [µM] | MIC [4] [µM] | other results
1 | CC(C)C[C@H](NC(=O)[C@H](CC(C)C)NC(=O)[C@H](CCCCN)NC(=O)[C@H](CCCCN)NC(=O)[C@H](C)NC(=O)[C@H](CC(C)C)NC(=O)[C@H](CCCCN)NC(=O)[C@H](CCCCN)NC(=O)[C@H](C)NC(=O)[C@@H](N)Cc1ccccc1)C(N)=O [FAKKLAKKLL] |  |  | > 172 | > 172 | 
2 | CC(C)C[C@H](NC(=O)[C@H](C)NC(=O)[C@H](Cc1ccccc1)NC(=O)[C@H](CCCCN)NC(=O)[C@H](CCCCN)NC(=O)[C@H](C)NC(=O)[C@H](CC(C)C)NC(=O)[C@H](CCCCN)NC(=O)[C@H](C)NC(=O)[C@H](Cc1ccccc1)NC(=O)[C@H](CC(C)C)NC(=O)[C@H](CCCCN)NC(=O)[C@H](C)NC(=O)[C@@H](N)Cc1ccccc1)C(N)=O [FAKLFAKLAKKFAL] |  |  | > 125 | 31.3 (≈ 50 µg/mL) | 
3 | CC(C)C[C@H](NC(=O)[C@H](CC(C)C)NC(=O)[C@H](CCCCN)NC(=O)[C@H](CCCCN)NC(=O)[C@H](C)NC(=O)[C@H](CC(C)C)NC(=O)[C@H](CC(C)C)NC(=O)[C@H](CCCCN)NC(=O)[C@H](C)NC(=O)[C@@H](N)Cc1ccccc1)C(N)=O [FAKLLAKKLL] |  |  | 175 (≈ 200 µg/mL) | 87.4 (≈ 99.9 µg/mL) | 
4 | CC(C)C[C@H](NC(=O)[C@H](CCCCN)NC(=O)[C@H](C)NC(=O)[C@H](CC(C)C)NC(=O)[C@H](CC(C)C)NC(=O)[C@H](CCCCN)NC(=O)[C@H](C)NC(=O)[C@@H](N)Cc1ccccc1)C(=O)N[C@@H](C)C(=O)N[C@@H](CCCCN)C(=O)N[C@@H](C)C(=O)N[C@@H](CCCCN)C(=O)NCC(N)=O [FAKLLAKLAKAKG] |  |  | > 147 | > 147 | 
5 | CC(C)C[C@H](NC(=O)[C@H](CCCCN)NC(=O)[C@H](C)NC(=O)[C@H](CCCCN)NC(=O)[C@H](C)NC(=O)[C@H](CC(C)C)NC(=O)[C@H](CCCCN)NC(=O)[C@H](C)NC(=O)[C@H](CC(C)C)NC(=O)[C@H](CC(C)C)NC(=O)[C@H](CCCCN)NC(=O)[C@H](C)NC(=O)[C@@H](N)Cc1ccccc1)C(N)=O [FAKLLAKLAKAKL] |  |  | 35.3 (≈ 50 µg/mL) | 10.6 (≈ 15 µg/mL) | 
6 | CC[C@H](C)[C@H](N)C(=O)N[C@H](C(=O)N[C@@H](CCCN=C(N)N)C(=O)N[C@H](C(=O)N[C@@H](C)C(=O)N[C@H](C(=O)N[C@@H](C)C(=O)N[C@@H](CC(C)C)C(=O)N[C@@H](CCCN=C(N)N)C(=O)N[C@@H](CCCN=C(N)N)C(=O)N[C@H](C(=O)N[C@@H](CCCN=C(N)N)C(N)=O)[C@@H](C)CC)C(C)C)C(C)C)C(C)C [IVRVAVALRRIR] |  |  |  |  | MIC (Pseudomonas aeruginosa): 51.3 µM (≈ 73 µg/mL)
7 | CC(C)C[C@H](NC(=O)[C@H](CCCCN)NC(=O)CNC(=O)[C@H](C)NC(=O)[C@H](CC(C)C)NC(=O)[C@H](CCCCN)NC(=O)[C@H](C)NC(=O)[C@H](CC(C)C)NC(=O)[C@H](CCCCN)NC(=O)CNC(=O)[C@H](C)NC(=O)[C@H](Cc1c[nH]c2ccccc12)NC(=O)[C@H](CCCCN)NC(=O)[C@H](C)NC(=O)[C@H](CC(C)C)NC(=O)[C@H](CCCCN)NC(=O)CNC(=O)[C@H](C)NC(=O)[C@H](CC(C)C)NC(=O)[C@@H](N)CCCCN)C(=O)N[C@@H](C)C(N)=O [KLAGKLAKWAGKLAKLAGKLA] |  |  |  |  | MIC (Escherichia coli): 3.74 µM (≈ 8 µg/mL); MIC (Pseudomonas aeruginosa): 7.49 µM (≈ 16 µg/mL); MIC (Staphylococcus aureus): 3.74 µM (≈ 8 µg/mL)
8 | CC(C)C[C@H](NC(=O)[C@H](CC(C)C)NC(=O)[C@H](CCCCN)NC(=O)[C@H](CCCCN)NC(=O)[C@H](C)NC(=O)[C@H](CC(C)C)NC(=O)[C@H](CCCCN)NC(=O)[C@H](C)NC(=O)[C@H](CC(C)C)NC(=O)[C@H](CC(C)C)NC(=O)[C@H](CCCCN)NC(=O)[C@H](C)NC(=O)[C@@H](N)C(C)C)C(N)=O [VAKLLAKLAKKLL] |  |  | 3.55 (≈ 5 µg/mL) | 3.55 (≈ 5 µg/mL) | 

Continued, in another order:

Row | MIC [2] [µM] | MIC [5] [µM] | SMILES | MIC [3] [µM] | MIC [4] [µM] | other results
9 | 51.5 (≈ 99.9 µg/mL) |  | CC(C)C[C@H](NC(=O)[C@@H]1CSSC[C@H](NC(=O)CNC(=O)[C@H](CCCN=C(N)N)NC(=O)[C@H](Cc2ccccc2)NC(=O)[C@H](C)NC(=O)[C@H](C)N)C(=O)N[C@@H](Cc2c[nH]c3ccccc23)C(=O)N[C@@H]([C@@H](C)O)C(=O)N[C@@H](CCCCN)C(=O)N[C@@H](CC(N)=O)C(=O)N[C@@H](Cc2ccc(O)cc2)C(=O)N[C@@H](CO)C(=O)N2CCC[C@H]2C(=O)N[C@@H](CCCCN)C(=O)N2CCC[C@H]2C(=O)N1)C(=O)O [AAFRGCWTKNYSPKPCL] |  |  | MIC [1]: 25.8 µM (≈ 50.1 µg/mL)
10 | 32 (≈ 58.9 µg/mL) | > 64 | CC(C)C[C@H](NC(=O)[C@H](CCCCN)NC(=O)[C@H](CC(C)C)NC(=O)[C@H](C)NC(=O)[C@H](CC(C)C)NC(=O)[C@H](CCCCN)NC(=O)[C@H](CCCCN)NC(=O)[C@H](CC(C)C)NC(=O)[C@H](CC(C)C)NC(=O)[C@H](CCCCN)NC(=O)[C@H](Cc1c[nH]c2ccccc12)NC(=O)[C@@H](NC(=O)[C@H](CC(C)C)NC(=O)[C@H](CCCCN)NC(=O)[C@@H](N)Cc1ccccc1)C(C)C)C(=O)O [FKLVWKLLKKLALKL] | > 64 |  | MIC (Acinetobacter baumannii): ≥ 64 µM; MIC [6]: 64 µM (≈ 118 µg/mL)
11 |  | 62.5 (≈ 178 µg/mL) | CC[C@H](C)[C@H](NC(=O)CN)C(=O)NCC(=O)N[C@@H](C)C(=O)N[C@H](C(=O)N[C@@H](CC(C)C)C(=O)N[C@@H](CCCCN)C(=O)N[C@H](C(=O)N[C@@H](CC(C)C)C(=O)N[C@H](C(=O)N[C@H](C(=O)NCC(=O)N[C@@H](CC(C)C)C(=O)N[C@@H](CS)C(=O)N[C@@H](C)C(=O)N[C@@H](CC(C)C)C(=O)N[C@H](C(=O)N[C@@H](CO)C(=O)N[C@@H](Cc1c[nH]c2ccccc12)C(=O)N[C@H](C(=O)N[C@@H](CCCCN)C(=O)N[C@@H](CCCN=C(N)N)C(=O)N[C@@H](CCCCN)C(=O)N[C@@H](CCCN=C(N)N)C(=O)N[C@@H](CCC(N)=O)C(=O)N[C@@H](CCC(N)=O)C(=O)O)[C@@H](C)CC)[C@@H](C)CC)[C@@H](C)O)[C@@H](C)O)C(C)C)C(C)C [GIGAVLKVLTTGLCALISWIKRKRQQ] |  |  | MIC [7]: 62.5 µM (≈ 178 µg/mL); MIC [8]: 62.5 µM (≈ 178 µg/mL); MIC [9]: 62.5 µM (≈ 178 µg/mL)
12 | > 150 | 75 (≈ 223 µg/mL) | CC[C@H](C)[C@H](NC(=O)CN)C(=O)N[C@@H](CCSC)C(=O)N[C@@H](CC(=O)O)C(=O)N[C@H](C(=O)N[C@H](C(=O)N[C@@H](CCCCN)C(=O)NCC(=O)N[C@@H](C)C(=O)N[C@@H](C)C(=O)N[C@@H](CCCCN)C(=O)N[C@@H](CC(=O)O)C(=O)N[C@@H](CC(C)C)C(=O)N[C@@H](C)C(=O)NCC(=O)N[C@@H](CCC(N)=O)C(=O)N[C@@H](CC(C)C)C(=O)N[C@@H](CC(C)C)C(=O)N[C@@H](CC(=O)O)C(=O)N[C@@H](CCCCN)C(=O)N[C@@H](CC(C)C)C(=O)N[C@@H](CCCCN)C(=O)N[C@H]1CSSC[C@@H](C(=O)O)NC(=O)[C@H](CCCCN)NC(=O)[C@H]([C@@H](C)O)NC(=O)[C@H]([C@@H](C)CC)NC(=O)[C@H](CCCCN)NC1=O)[C@@H](C)CC)[C@@H](C)O [GIMDTIKGAAKDLAGQLLDKLKCKITKC] |  |  | MIC [10]: ≥ 150 µM
13 | > 25 | > 25 | CC[C@H](C)[C@H](NC(=O)[C@H](CCCCN)NC(=O)[C@H](CCCCN)NC(=O)[C@@H](NC(=O)[C@H](CC(C)C)NC(=O)[C@H](CC(C)C)NC(=O)[C@H](CCCCN)NC(=O)CN)C(C)C)C(=O)N[C@H](C(=O)N[C@@H](CO)C(=O)N[C@@H](CC(C)C)C(=O)N[C@H](C(=O)N[C@@H](CCCN=C(N)N)C(=O)N[C@@H](CO)C(=O)N[C@@H](C)C(N)=O)C(C)C)C(C)C [GKLLVKKIVSLVRSA] | > 25 |  | MIC (Acinetobacter baumannii): 25 µM (≈ 40.3 µg/mL); MIC [6]: > 25 µM
